Data published in patent publication US11971383B1, “Enhanced 3D porous architectured electroactive devices via impregnated porogens” (Iowa State University Research Foundation, Inc., priority 2018, dated 2024).

Biological target: T1, Acetylcholinesterase (ACHE) (Electrophorus electricus, UniProt O42275)
T1 construct: purchased Sigma Aldrich
Experiment: ACHE biosensor inhibition versus incubation time (decrease in amperometric oxidation current)
Format: biochemical
Conditions: 1 μM paraoxon, 5 mM ACTH, 400 mV
Method: Sodium chloride (NaCl) was purchased from Sigma-Aldrich, ground using mortar and pestle, and filtered into different sizes with 8 in wire cloth sieves. Acetylcholinesterase (ACHE) from Electrophorus electricus was purchased from Sigma Aldrich as lyophilized powder (200-1000 units per mg) and was used without any further purification. ACHE ink aliquots were made by dissolving the enzyme (2 mg) in 1 mL of 50% glycerol and 50% 1× phosphate-buffer solution (0.1 M PBS, pH 7.0), aliquoted into 25 μL, and stored in a −80° C. freezer until use. […]. All other chemicals and solvents were purchased from Sigma-Aldrich and were used without any other purification unless otherwise stated. Water was filtered through a B-Pure Water Purification system (resistivity, […]).
SIIML electrodes were functionalized with ACHE using 1-ethyl-3-(3-dimethylaminopropyl) carbodiimide and N-hydroxysuccinimide (EDC/NHS) chemistry, which facilitated the functionalization of carboxyl groups to the amines within the ACHE enzyme.^39 In summary, the CO2 laser annealed SIIML electrodes were dipped in a solution of EDC/NHS mixture (50 mM EDC, 50 mM NHS) and incubated for 30 min on a tilter mixer. The electrodes were then rinsed with 1×PBS, excess water was blown off but not completely dried as the surface remained still “wetted”, this allowed for easier pipetting onto the slightly hydrophobic graphene surface. […]

T1 sequence (O42275 24-633): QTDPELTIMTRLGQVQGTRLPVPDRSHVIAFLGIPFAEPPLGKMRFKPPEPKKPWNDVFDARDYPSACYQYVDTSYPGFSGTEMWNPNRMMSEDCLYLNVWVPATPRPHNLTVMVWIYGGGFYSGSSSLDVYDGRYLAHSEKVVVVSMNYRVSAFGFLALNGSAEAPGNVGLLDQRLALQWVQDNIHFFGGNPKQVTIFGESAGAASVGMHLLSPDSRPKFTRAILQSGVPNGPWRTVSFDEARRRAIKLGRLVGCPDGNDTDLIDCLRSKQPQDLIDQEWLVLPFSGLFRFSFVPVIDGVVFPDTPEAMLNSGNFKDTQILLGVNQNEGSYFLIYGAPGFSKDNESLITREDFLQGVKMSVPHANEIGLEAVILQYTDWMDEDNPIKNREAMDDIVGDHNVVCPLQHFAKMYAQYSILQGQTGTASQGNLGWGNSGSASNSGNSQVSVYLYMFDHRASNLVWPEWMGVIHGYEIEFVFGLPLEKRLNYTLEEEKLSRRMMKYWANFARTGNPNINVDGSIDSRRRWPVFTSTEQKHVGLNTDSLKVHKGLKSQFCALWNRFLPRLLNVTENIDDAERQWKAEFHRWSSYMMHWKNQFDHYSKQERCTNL

## CCOP(=O)(OCC)Oc1ccc([N+](=O)[O-])cc1 [paraoxon]
After 100 seconds incubation, large standard deviations
  inhibition of the sensor (percent of ACHE inhibited): roughly 50%
After 500 seconds incubation, low standard deviation
  inhibition of the sensor (percent of ACHE inhibited): about 90%
